Measured values published in paper PMC12339163, “Combining Plant Bioactives With Antibiotics for Enhanced Antibiofilm Activity Against Uropathogenic Staphylococcus spp. and Cytotoxicity Evaluation” (Advances in Pharmacological and Pharmaceutical Sciences, 2025).
Converted amounts (≈) assume the structure as drawn. Where two headings read alike, the source gives them in different places.

Tests used:
[1] = system: S. aureus biofilm; test: Biofilm eradication assay (MBEC, MTT); type: cell-based, Staphylococcus aureus; details: Staphylococcus aureus, 24 h; geometric mean, S. aureus (n = 3)
Procedure: (§1) The determination of the biofilm eradication potential of NPs and ATBs was performed as previously described. Briefly, 100 µL of bacterial inoculum (1.5 × 10^6 CFU/mL) and 100 µL of MHB + 1% glucose were introduced into the microplate, incubated at 37°C for 24 h, and the microplate was gently emptied and washed three times with PBS. Then, 200 µL of ATBs or NPs at respective concentrations ranging from 8 to 1024 µg/mL and from 16 to 2048 µg/mL were incubated at 37°C for 24 h. Once incubation was completed, the microplate was processed as described above, and the percentage of biofilm eradication was calculated using the formula below. The minimal biofilm eradicating concentration (MBEC) was recorded as the lowest concentration of the test sample that reduces 100% of biofilm:(2) % biofilm eradication=ODcontrol−ODblank−ODtest−ODblank/ODcontrol−ODblank×100.

[2] = system: S. aureus; test: MIC and MBC, broth microdilution; type: cell-based, Staphylococcus aureus; details: Staphylococcus aureus, geometric mean, S. aureus (n = 3); for MBC: read-out: MBC; for MIC: read-out: MIC
Procedure: (§2) Seven clinical isolates of Staphylococcus spp. including 2 S. aureus, 3 S. saprophyticus, and 2 S. epidermidis were used. They were isolated from urine samples in our previous study. Two reference strains (S. aureus ATCC1026 and S. epidermidis ATCC35984) obtained from the American Type Culture Collection were also included. They were kept in the mixture of glycerol and Mueller Hinton Broth (MHB) (1:1) at −20°C, and the activation was achieved using the streak technique on Mueller Hinton agar (MHA) medium.
(§3) The MICs of ATBs and NPs were determined by the broth microdilution method as previously described. NPs and ATBs were, respectively, prepared at 4096 µg/mL and 512 µg/mL and serially diluted twofold with MHB in a 96-well microplate at a volume of 100 µL. Then, the wells were filled with 100 µL of inoculum (1.5 × 10^6 CFU/mL) to give final concentrations ranging from 1024 µg/mL to 0.5 µg/mL and 128 µg/mL to 0.062 µg/mL of NPs and ATBs, respectively. The microplates were incubated for 24 h at 37°C. Wells containing only bacterial inoculum were used as the negative control. After incubation, a volume of 40 µL of INT solution (0.2 mg/mL) was added to each well, and the microplate was incubated at 37°C for 30 min. Viable bacteria cells change the yellow dye of INT to a pink color. The MIC was considered as the lowest concentration of the sample at which there was no change in the coloration of the medium, corresponding to the complete inhibition of microbial growth.
(§4) All tests were performed in triplicate.

[3] = system: S. saprophyticus; test: MIC and MBC, broth microdilution; type: cell-based, Staphylococcus saprophyticus; details: Staphylococcus saprophyticus, geometric mean, S. saprophyticus (n = 3); for MBC: read-out: MBC; for MIC: read-out: MIC
Procedure: as §2, §3, §4

[4] = system: S. epidermidis; test: MIC and MBC, broth microdilution; type: cell-based, Staphylococcus epidermidis; details: Staphylococcus epidermidis, geometric mean, S. epidermidis (n = 3); for MBC: read-out: MBC; for MIC: read-out: MIC
Procedure: as §2, §3, §4

[5] = system: S. aureus biofilm; test: Biofilm inhibition assay (MBIC, MTT); type: cell-based, Staphylococcus aureus; details: Staphylococcus aureus, 24 h; geometric mean, S. aureus (n = 3)
Procedure: (§5) The biofilm formation inhibitory activity of NPs and ATBs was carried out according to the method previously described. A total of 100 µL of bacterial inoculum (1.5 × 10^6 CFU/mL) was used, and 100 µL of each sample was added to the microplate to achieve final concentrations ranging from 0.25 µg/mL to 128 µg/mL for ATBs and from 8 µg/mL to 1024 µg/mL for NPs. Then, the microplate was incubated at 37°C for 24 h. After incubation, the plates were gently emptied and washed three times with a phosphate buffer solution at pH 7.2. Then, the MTT solution (0.5 mg/mL) prepared in PBS was introduced into each well, and the microplate was further incubated at 37°C for 24 h. Untreated wells containing bacterial suspension and MHB supplemented with 1% glucose were considered positive controls, and wells containing only MHB+1% glucose without bacteria were used as blanks. After incubation, the MTT solution was aspirated, then 150 µL of DMSO was introduced to dissolve the formazan crystal formed by viable bacteria, and the optical density (OD) was measured at 570 nm using a microplate reader (VERSA-max). The percentage of biofilm inhibition was calculated using the formula below, and the minimal biofilm inhibitory concentration (MBIC) was recorded as the lowest concentration of NPs or ATBs that inhibited 100% of biofilm:(1) % biofilm inhibition=ODcontrol−ODblank−ODtest−ODblank/ODcontrol−ODblank×100.

[6] = system: S. epidermidis biofilm; test: Biofilm eradication assay (MBEC, MTT); type: cell-based, Staphylococcus epidermidis; details: Staphylococcus epidermidis, 24 h; geometric mean, S. epidermidis (n = 3)
Procedure: as §1

[7] = system: S. saprophyticus biofilm; test: Biofilm inhibition assay (MBIC, MTT); type: cell-based, Staphylococcus saprophyticus; details: Staphylococcus saprophyticus, 24 h; geometric mean, S. saprophyticus (n = 3)
Procedure: as §5

[8] = system: planktonic cells of Staphylococcus aureus; test: Checkerboard combination assay, planktonic cells; type: cell-based; details: Staphylococcus aureus, S. aureus, mean
Procedure: (§6) The checkerboard assay, as previously described, was used for the determination of the fractional inhibitory concentration index (FICI). Briefly, 50 µL of MHB was distributed into each well of a 96-well microplate. ATBs were serially diluted along the abscissa, and NPs were serially diluted along the ordinate. Then, 100 µL of bacterial inoculum (1.5 × 10^6 CFU/mL) was added to each well and incubated at 37°C for 24 h. The final concentration ranged from 0.125 to 128 µg/mL for ATBs and 4–512 µg/mL for NPs. After incubation, a volume of 40 µL of INT solution (0.2 mg/mL) was added to each well, and the microplate was incubated at 37°C for 30 min. The wells containing bacterial inoculum and MHB were used as a positive control, while wells containing only MHB + 1% glucose were used as a negative control and used as a blank. Viable bacteria cells change the yellow dye of INT to a pink color. The MICs were considered to be the lowest NP concentrations that prevented the color change medium. Subsequently, the FICI was calculated according to the formula FICI = (MIC of the ATBs in combination/MIC of the ATBs alone) + (MIC of a natural substance in combination/MIC of the natural substance alone). FICI values were interpreted as follows: synergy when FICI ≤ 0.5; additive when 0.5 < FICI ≤ 1; indifference when 1 < FICI ≤ 4; and antagonism when FICI > 4.

[9] = system: planktonic cells of Staphylococcus saprophyticus; test: Checkerboard combination assay, planktonic cells; type: cell-based; details: S. saprophyticus, mean; for MIC: Staphylococcus saprophyticus
Procedure: as §6

| SMILES | minimal effective concentration [1] [µg/mL] | MBC ([2]; antibiotics) [µg/mL] | MIC [2] [µg/mL] | MBC ([3]; antibiotics) [µg/mL] | MIC [3] [µg/mL] | MBC ([4]; antibiotics) [µg/mL] | MIC [4] [µg/mL] | minimal effective concentration [5] [µg/mL] | minimal effective concentration [6] [µg/mL] | minimal effective concentration [7] [µg/mL] | MIC ([8]; 24 h, read-out: MIC alone, ATB) [µg/mL] | MIC ([8]; read-out: MIC alone, ATB) [µg/mL] | MIC ([9]; 24 h, read-out: MIC alone, ATB) [µg/mL] | MIC ([9]; read-out: MIC alone, ATB) [µg/mL] | MBC ([2]; natural products) [µg/mL] | MBC ([3]; natural products) [µg/mL] | MBC ([4]; natural products) [µg/mL] | MIC ([8]; 24 h, read-out: MIC alone, NPs) [µg/mL] | MIC ([8]; read-out: MIC alone, NPs) [µg/mL] | MIC ([9]; 24 h, read-out: MIC alone, NPs) [µg/mL] | also measured |
| --- | --- | --- | --- | --- | --- | --- | --- | --- | --- | --- | --- | --- | --- | --- | --- | --- | --- | --- | --- | --- | --- |
| C=CC1=C(C(=O)O)N2C(=O)[C@@H](NC(=O)/C(=N\OCC(=O)O)c3csc(N)n3)[C@H]2SC1 [Cefixime, cefixime] | 42.7 | > 128 | 213 (≈ 470 µM) | > 128 | 192 (≈ 423 µM) | > 128 | 107 (≈ 235 µM) | 64 | 42.7 | 48 | 213 | 213 | 192 | 192 | – | – | – | – | – | – | – |
| C[C@H]1c2cccc(O)c2C(=O)C2=C(O)[C@]3(O)C(=O)C(C(N)=O)=C(O)[C@@H](N(C)C)[C@@H]3[C@@H](O)[C@@H]21 [Doxycycline, doxycycline] | 16 | 32.7 (≈ 73.5 µM) | 6.16 (≈ 13.9 µM) | > 128 | 32.2 (≈ 72.4 µM) | 8 (≈ 18 µM) | 7 (≈ 15.8 µM) | 2.16 | 16 | 0.5 | 6.16 | 6.16 | 32.2 | 32.2 | – | – | – | – | – | – | – |
| Cc1nnc(SCC2=C(C(=O)O)N3C(=O)[C@@H](NC(=O)Cn4cnnn4)[C@H]3SC2)s1 [Cefazolin, cefazolin] | 42.7 | > 128 | 42.7 (≈ 93.9 µM) | > 128 | 64.7 (≈ 142 µM) | 139 (≈ 305 µM) | 42.7 (≈ 93.9 µM) | 4.66 | 10.7 | 8.53 | 42.7 | 42.7 | 64.7 | 64.7 | – | – | – | – | – | – | – |
| CC[C@H]1OC(=O)[C@H](C)[C@@H](O[C@H]2C[C@@](C)(OC)[C@@H](O)[C@H](C)O2)[C@H](C)[C@@H](O[C@@H]2O[C@H](C)C[C@H](N(C)C)[C@H]2O)[C@](C)(O)C[C@@H](C)C(=O)[C@H](C)[C@@H](O)[C@]1(C)O [Erythromycin, erythromycin] | 42.8 | > 128 | 108 (≈ 147 µM) | > 128 | 4.66 (≈ 6.35 µM) | > 128 | 32.7 (≈ 44.5 µM) | 42.8 | 18.7 | 27.3 | 108 | 108 | 4.66 | 4.66 | – | – | – | – | – | – | – |
| Cc1ccc(C(C)C)c(O)c1 [Thymol, thymol] | 107 | – | 299 (≈ 1990 µM) | – | 341 (≈ 2270 µM) | – | 341 (≈ 2270 µM) | 341 | 107 | 128 | – | – | – | – | > 1020 | > 1020 | > 1020 | 299 | 299 | 341 | MIC ([9]; read-out: MIC alone, NPs): 341 µg/mL |
| COc1cc(/C=C/C(=O)CC(=O)/C=C/c2ccc(O)c(OC)c2)ccc1O [Curcumin, curcumin] | 149 | – | – | – | 171 (≈ 463 µM) | – | 384 (≈ 1040 µM) | 107 | 107 | 107 | – | – | – | – | > 1020 | > 1020 | > 1020 | 235 | 235 | 149 | MIC ([2]; 24 h): 244 µg/mL (≈ 661 µM); MIC alone, NPs ([9]; listed as Cur): 213.33 µg/mL; MIC ([9]; read-out: MIC alone, NPs): 149 µg/mL |
